{"source": "paper PMC7136958", "about": "“Targeting the pregnane X receptor using microbial metabolite mimicry” (EMBO Molecular Medicine, 2020)", "key": {"[1]": {"tested_on": "mutant PXR.1 (C285I/C301A)", "experiment": "PXR luciferase reporter assay in HEK293T cells, mutant PXR.1", "type": "cell-based, human", "conditions": "10 μM, replicate wells", "method": "After 24‐h transfection using Lipofectamine® LTX ([…] of plasmid), cells were exposed to FKK5 for 24 h. […] The data are expressed as mean ± SD RLU (relative light units from luciferase assay) normalized to β‐Gal activity in the same well. Differences were tested using 2‐way ANOVA with Tukey's multiple comparison test, and P < 0.05 was considered significant (*)."}, "SIRT1": {"molecular_target": "T1, SIRT1 (Homo sapiens, UniProt Q96EB6)", "T1 construct": "full -length N-terminal His-tag protein (MW 83.2 kDa); His-tag (N); purchased Reaction Biology Corp; host or cells: E. coli", "T1 sequence (Q96EB6 whole entry)": "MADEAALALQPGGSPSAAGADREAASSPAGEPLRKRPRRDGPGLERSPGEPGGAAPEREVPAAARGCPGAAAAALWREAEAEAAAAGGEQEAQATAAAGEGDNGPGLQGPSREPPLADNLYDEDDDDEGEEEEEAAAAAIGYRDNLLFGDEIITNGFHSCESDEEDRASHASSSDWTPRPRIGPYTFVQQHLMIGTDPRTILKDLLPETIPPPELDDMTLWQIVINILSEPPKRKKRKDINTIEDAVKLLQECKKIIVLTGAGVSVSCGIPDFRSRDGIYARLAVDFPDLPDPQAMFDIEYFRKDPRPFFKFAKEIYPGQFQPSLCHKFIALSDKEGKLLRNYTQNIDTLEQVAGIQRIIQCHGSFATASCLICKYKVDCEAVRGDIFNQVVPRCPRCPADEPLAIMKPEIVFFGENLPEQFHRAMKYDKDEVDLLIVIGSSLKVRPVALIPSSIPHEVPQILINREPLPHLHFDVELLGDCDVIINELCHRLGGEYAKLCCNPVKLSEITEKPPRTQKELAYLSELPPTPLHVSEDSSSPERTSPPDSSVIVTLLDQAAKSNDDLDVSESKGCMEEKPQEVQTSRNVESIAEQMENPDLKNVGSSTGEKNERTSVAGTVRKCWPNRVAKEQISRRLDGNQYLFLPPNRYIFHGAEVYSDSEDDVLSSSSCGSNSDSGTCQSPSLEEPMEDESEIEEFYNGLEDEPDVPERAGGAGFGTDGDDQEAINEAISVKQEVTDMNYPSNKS", "experiment": "Sirtuin (SIRT1) assay", "type": "biochemical", "conditions": "substrate Acetylated peptide, replicates", "method": "Software Tool and reprinted with permission from KINOME scan®, a division of DiscoveRx […]\nThe following […] assays (HDAC, SIRT1, PRMT1, PARP1, p300, pCAF) were performed by Reaction Biology Corp. FKK6 was screened at a single concentration of 10 μM in duplicate in two separate experiments. The appropriate controls for the individual assays are published. The overall […]\nenzyme activity in the assay is reported as a % activity in DMSO control wells. Control IC50 […]\nBriefly, for the Sirtuin (SIRT1) assay, human SIRT1 (GenBank\nAccession No. NM012238) full -length N-terminal His-tag protein (MW 83.2 kDa) was purified after expression in E. coli. The reaction buffer was freshly prepared and constituted 50 mM Tris-HC l ( p H 8), 137 mM NaCl, 2.7 mM KCl, 1 mM MgCl2, and just before use, 1 mg/mL BSA and 1% DMSO was added. The substrate was a fluorogenic acetylated peptide of p53 residues 379-382 (RHKK (Ac)- AM C) . In th e multi-well format, the 2X enzyme was mixed with the reaction buffer followed by compound (in 100% DMSO) titration via Acoustic technology (Echo550; LabCyte Inc, Sunnyvale, CA) in the nanoliter range. The mixture was spun down and 2X substrate (including NAD+) was added to initiate the reaction at 30° C at 2h under seal. […] Fluorescence kinetic measurements were conducted for 1.5 h in 15 min intervals using Envision (Ex 360nm/Em 460nm). […]"}}, "note": "Several values for one entry are separate records, joined by “and”; a condition that tells them apart may be missing. Identical values can stand only once.", "data": [{"compound": "C#CCC(O)(c1ccncc1)c1cc2ccccc2n1S(=O)(=O)c1ccccc1", "note": "(stereo not drawn) [FKK6]", "values": [{"measurement": "PXR reporter activity, RLU/B-Gal", "setting": "[1]", "value": "unable to activate mutant PXR and 17076.9 RLU/B-Gal and 15814.1 RLU/B-Gal and 17887 RLU/B-Gal and 19102.1 RLU/B-Gal"}, {"measurement": "% Enzyme Activity to DMSO controls", "setting": "SIRT1; 10 μM", "value": "100.03% and 99.84% and 94.47%"}, {"measurement": "remaining activity at 10 µM", "setting": "SIRT1; read-out: % Enzyme Activity to DMSO controls", "value": 100, "unit": "%"}]}]}
